In the NIST ThermoML archive (doi:10.1016/j.jct.2016.12.020):

Assay: excess molar enthalpy (molar enthalpy of mixing); xn = mol fraction of the nth substance listed
Conditions: 100 kPa, Liquid, Calvet calorimetry

[Au] [gold] + [Ga]
excess molar enthalpy [kcal/mol]
Conditions | 1223 K | 1323 K
x1 = 0.03042 | -0.3007 | –
x1 = 0.03979 | – | -0.4015
x1 = 0.0642 | -0.6272 | –
x1 = 0.07894 | – | -0.7875
x1 = 0.09685 | -0.9732 | –
x1 = 0.116 | – | -1.149
x1 = 0.1281 | -1.308 | –
x1 = 0.1512 | – | -1.492
x1 = 0.1606 | -1.622 | –
x1 = 0.1843 | – | -1.794
x1 = 0.1915 | -1.907 | –
x1 = 0.2172 | – | -2.085
x1 = 0.2205 | -2.139 | –
x1 = 0.2492 | -2.37 | -2.366
x1 = 0.2762 | -2.589 | –
x1 = 0.2785 | – | -2.596
x1 = 0.3018 | -2.787 | –
x1 = 0.3074 | – | -2.819
x1 = 0.3274 | -2.98 | –
x1 = 0.3345 | – | -3.014
x1 = 0.3516 | -3.153 | –
x1 = 0.3597 | – | -3.179
x1 = 0.3741 | -3.296 | –
x1 = 0.3836 | – | -3.319
x1 = 0.3958 | -3.404 | –
x1 = 0.4061 | – | -3.431
x1 = 0.4164 | -3.509 | –
x1 = 0.4283 | – | -3.53
x1 = 0.4363 | -3.587 | –
x1 = 0.449 | – | -3.615
x1 = 0.4553 | -3.665 | –
x1 = 0.4692 | – | -3.695
x1 = 0.4737 | -3.733 | –
x1 = 0.4871 | -3.783 | –
x1 = 0.4882 | – | -3.752
x1 = 0.4991 | – | -3.797
x1 = 0.5003 | -3.814 | –
x1 = 0.5096 | – | -3.825
x1 = 0.5139 | -3.826 | –
x1 = 0.5203 | – | -3.85
x1 = 0.527 | -3.839 | –
x1 = 0.5307 | – | -3.87
x1 = 0.5395 | -3.851 | –
x1 = 0.5412 | – | -3.88
x1 = 0.5514 | – | -3.89
x1 = 0.5515 | -3.86 | –
x1 = 0.5621 | – | -3.89
x1 = 0.5631 | -3.88 | –
x1 = 0.5727 | – | -3.9
x1 = 0.5743 | -3.88 | –
x1 = 0.5829 | – | -3.9
x1 = 0.585 | -3.88 | –
x1 = 0.5927 | – | -3.89
x1 = 0.5953 | -3.88 | –
x1 = 0.6028 | – | -3.88
x1 = 0.6053 | -3.88 | –
x1 = 0.6129 | – | -3.87
x1 = 0.6147 | -3.88 | –
x1 = 0.6231 | – | -3.84
x1 = 0.6239 | -3.87 | –
x1 = 0.6306 | -3.86 | –
x1 = 0.637 | -3.85 | –
x1 = 0.6431 | -3.83 | –

[Ag] [silver] + [Ga]
Conditions | excess molar enthalpy [kcal/mol]
1223 K, x1 = 0.04915 | 0.0514
1223 K, x1 = 0.0956 | 0.0619
1223 K, x1 = 0.1383 | 0.0729
1223 K, x1 = 0.1792 | 0.0681
1223 K, x1 = 0.2178 | 0.0629
1223 K, x1 = 0.2552 | 0.0301
1223 K, x1 = 0.2905 | -0.00215
1223 K, x1 = 0.3228 | -0.0502
1223 K, x1 = 0.3528 | -0.0958
1223 K, x1 = 0.3809 | -0.14
1223 K, x1 = 0.4081 | -0.193
1223 K, x1 = 0.4336 | -0.252
1223 K, x1 = 0.4572 | -0.308
1223 K, x1 = 0.4789 | -0.346
1223 K, x1 = 0.4992 | -0.389
1223 K, x1 = 0.5189 | -0.447
1223 K, x1 = 0.5372 | -0.494
1223 K, x1 = 0.5548 | -0.535
1223 K, x1 = 0.5712 | -0.574
1323 K, x1 = 0.05283 | 0.0533
1323 K, x1 = 0.1006 | 0.0992
1323 K, x1 = 0.1464 | 0.112
1323 K, x1 = 0.1894 | 0.107
1323 K, x1 = 0.2288 | 0.0978
1323 K, x1 = 0.2649 | 0.0846
1323 K, x1 = 0.2996 | 0.0519
1323 K, x1 = 0.3321 | 0.00598
1323 K, x1 = 0.3634 | -0.0519
1323 K, x1 = 0.3921 | -0.0949
1323 K, x1 = 0.4189 | -0.144
1323 K, x1 = 0.4443 | -0.198
1323 K, x1 = 0.4687 | -0.227
1323 K, x1 = 0.4964 | -0.274
1323 K, x1 = 0.5168 | -0.312
1323 K, x1 = 0.5359 | -0.344
1323 K, x1 = 0.5558 | -0.386
